Assay results from patent US5770382A, “Tricyclic retinoids, methods for their production and use” (Ligand Pharmaceuticals, Inc., priority 1995, dated 1998).
pEC50: −log10 of the molar value. “Also recorded” adds a separate entry of the source.

Assays:
RAR and RXR receptors = assay: Co-transfection assay, summary for RARs and RXRs; format: cell-based; conditions: for potency profile in comparison to 9-cis retinoic acid (in words): versus 9-cis
Protocol: (§1) Utilizing the "cis-trans" or "co-transfection" assay described by Evans et al., Science, 240:889-95 (May 13, 1988), the disclosure of which is herein incorporated by reference, the retinoid compounds of the present invention were tested and found to have strong, specific activity as either selective RAR agonists, selective RXR agonists, or as pan-agonist activators of both RAR and RXR receptors. This assay is described in further detail in U.S. Pat. Nos. 4,981,784 and 5,071,773, the disclosures of which are incorporated herein by reference.
(§2) The co-transfection assay provides a method for identifying functional agonists which mimic, or antagonists which inhibit, the effect of native hormones, and quantifying their activity for responsive IR proteins. In this regard, the co-transfection assay mimics an in vivo system in the laboratory. Importantly, activity in the co-transfection assay correlates very well with known in vivo activity, such that the co-transfection assay functions as a qualitative and quantitative predictor of a tested compounds Ln vivo pharmacology. See, e.g., T. Berger et al. 41 J. Steroid Biochem. Molec. Biol. 733 (1992), the disclosure of which is herein incorporated by reference.
(§3) In the co-transfection assay, a cloned cDNA for an IR (e.g., human RARα, RARβ, RXRγ) under the control of a constitutive promoter (e.g., the SV 40 promoter) is introduced by transfection (a procedure to induce cells to take up foreign genes) into a background cell substantially devoid of endogenous IRs. This introduced gene directs the recipient cells to make the IR protein of interest. A second gene is also introduced (co-transfected) into the same cells in conjunction with the IR gene. This second gene, comprising the cDNA for a reporter protein, such as firefly luciferase (LUC), controlled by an appropriate hormone responsive promoter containing a hormone response element (HRE). This reporter plasmid functions as a reporter for the transcription-modulating activity of the target IR. Thus, the reporter acts as a surrogate for the products (mRNA then protein) normally expressed by a gene under control of the target receptor and its native hormone.
(§4) The co-transfection assay can detect small molecule agonists or antagonists of target IRs. Exposing the transfected cells to an agonist ligand compound increases reporter activity in the transfected cells. This activity can be conveniently measured, e.g., by increasing luciferase production, which reflects compound-dependent, IR-mediated increases in reporter transcription. […] . Increasing concentrations of a suspected antagonist will decrease the reporter signal (e.g., luciferase production). The co-transfection assay is therefore useful to detect both agonists and antagonists of specific IRs. Furthermore, it determines not only whether a compound interacts with a particular IR, but whether this interaction mimics (agonizes) or blocks (antagonizes) the effects of the native regulatory molecules on target gene expression, as well as the specificity and strength of this interaction.
To determine RAR and/or RXR agonist activity of the compounds of the present invention, the CV-1 cells were transiently transfected by calcium phosphate coprecipitation according to the procedure of Berger et al., 41 J.Steroid Biochem. Mol. Biol., 733 (1992) with the following receptor expressing plasmids: pRShRARα: Giguere et al., 330 Nature, 624 (1987); pRShRARβ and pRShRARγ, Ishikawa et al., 4 Mol. Endocrin., 837 (1990); pRShRXRα, Mangelsdorf et al., 345 Nature, 224 (1990); and pRSmRXRβ and pRSmRXRγ, Mangelsdorf et al., 6 Genes & Devel., 329 (1992), the disclosures of which are herein incorporated by reference.

RARs = assay: Co-transfection assay, summary for the RARs; format: cell-based, human
Protocol: as §1, §2, §3
as §4, with “Furthermore, it determines not only whether a compound interacts with a particular IR, but whether this interaction mimics (agonizes) or blocks (antagonizes) the effects of the native regulatory molecules on target gene expression, as well as the specificity and strength of this interaction.” left out

RXRα = target: T1, RXRα (Homo sapiens, UniProt P19793); assay: Co-transfection assay, RXRα agonist activity; format: cell-based; conditions: CV-1 cells, 40 hours; read-out: RXRα Pot (potency, EC50)
T1 construct: expressed in transfected cells; host or cells: CV-1 (African green monkey kidney fibroblasts)
T1 sequence (P19793 1-462): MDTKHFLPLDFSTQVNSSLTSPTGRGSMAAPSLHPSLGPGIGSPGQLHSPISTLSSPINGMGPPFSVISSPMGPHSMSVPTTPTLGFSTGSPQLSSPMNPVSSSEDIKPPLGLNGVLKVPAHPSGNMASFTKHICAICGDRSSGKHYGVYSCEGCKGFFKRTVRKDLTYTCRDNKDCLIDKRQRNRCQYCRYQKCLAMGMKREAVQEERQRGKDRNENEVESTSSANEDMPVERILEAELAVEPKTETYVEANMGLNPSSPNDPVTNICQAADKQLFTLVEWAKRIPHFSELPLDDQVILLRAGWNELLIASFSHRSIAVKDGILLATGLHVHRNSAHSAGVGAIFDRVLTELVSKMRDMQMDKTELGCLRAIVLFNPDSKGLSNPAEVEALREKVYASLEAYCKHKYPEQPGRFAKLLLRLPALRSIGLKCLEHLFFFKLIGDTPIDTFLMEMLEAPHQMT

[1] = system: ornithine decarboxylase (ODC); conditions: literature; cited from earlier work

| Compound | agonist type on RAR and RXR receptors (in words) (RAR and RXR receptors) | potency profile in comparison to 9-cis retinoic acid (in words) (RAR and RXR receptors) | RAR activity / selectivity (in words) (RARs) | also measured |
| --- | --- | --- | --- | --- |
| CC(/C=C/CC1CCCc2cc3c(cc21)C(C)(C)CCC3(C)C)=C\C(=O)O (racemic) [Compound 124b, (2E,4E)-3-Methyl-6-(1,2,3,4,5,6,7,8-octahydro-5,5,8,8-tetramethylanthracen-1-yl)hexa-2,4-dienoic acid] | pan-agonist | superior potency profiles |  |  |
| CC(/C=C/C=C1/CCCc2cc3c(cc21)C(C)(C)CCC3(C)C)=C\C(=O)O [Compound 101b, (2E,4E)-3-Methyl-6-[(Z)-3,4,5,6,7,8-hexahydro-5,5,8,8-tetramethyl-2H-anthracen-1-ylidene]hexa-2,4-dienoic acid] | pan-agonist | superior potency profiles | extremely potent RAR active |  |
| CC(/C=C/C=C1\CCCc2cc3c(cc21)C(C)(C)CCC3(C)C)=C\C(=O)O [Compound 109b, (2E,4E)-3-Methyl-6-[(E)-3,4,5,6,7,8-hexahydro-5,5,8,8-tetramethyl-2H-anthracen-1-ylidene]hexa-2,4-dienoic acid] |  |  | extremely potent RAR active; also recorded: RAR selective |  |
| CC(/C=C/C=C1\CCOc2cc3c(cc21)C(C)(C)CCC3(C)C)=C\C(=O)O [Compound 119b, (2E,4E)-3-Methyl-6-[(E)-2,3,6,7,8,9-hexahydro-6,6,9,9-tetramethyl-benzo[g]chromen-4-ylidene]hexa-2,4-dienoic acid] |  |  | extremely potent RAR active; also recorded: RAR selective |  |
| CC(/C=C/C=C1/CCOc2cc3c(cc21)C(C)(C)CCC3(C)C)=C\C(=O)O [Compound 144b] | pan-agonist | superior potency profiles | extremely potent RAR active |  |
| CCN1CC\C(=C/C=C/C(C)=C/C(=O)O)c2cc3c(cc21)C(C)(C)CCC3(C)C [Compound 147b, (2E,4E)-3-methyl-6-[(E)1-ethyl-6,6,9,9-tetramethyl-2,3,6,7,8,9-hexahydro-1H-benzo[g]quinolin-4-ylidene]hexa-2,4-dienoic acid] |  |  |  | pEC50 (RXRα): < 5.00 |
| CC1=C(/C=C/C(C)=C/C=C/C(C)=C/C(=O)O)C(C)(C)CCC1 [retinoic acid] |  |  |  | inhibition of TPA induction of ODC (in words) [1]: inhibits this induction of ODC by TPA |
